Assay results as given in US20060069132A1, “Azolecarboxamide herbicides” (priority 2004, published 2006).

Assays:
ducksalad = test: Test C flooded paddy test; type: in vivo, Heteranthera limosa; details: for Plant response rating, Ducksalad: 500 g ai/ha, visual rating after 12 to 14 days
common ragweed = test: Test C pre-/postemergence herbicide test; type: in vivo, Ambrosia elatior; design: key to Plant response rating, Ragweed: 0 = no effect, 100 = complete control; details: for Plant response rating, Ragweed: preemergence
Summary of the method: (§1)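 Greenhouse-grown plants were evaluated visually 12 to 14 days after treatment, with 100 meaning complete control and 0 no effect. Application was preemergence, or postemergence at 2 to 18 cm.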

morningglory = test: Test C pre-/postemergence herbicide test; type: in vivo, Ipomoea coccinea; design: key to Plant response rating, Morningglory: 0 = no effect, 100 = complete control; details: for Plant response rating, Morningglory: preemergence
Summary of the method: as §1

barnyardgrass = test: Test C flooded paddy test; type: in vivo, Echinochloa crus-galli; details: for Plant response rating, Barnyardgrass: 500 g ai/ha, visual rating after 12 to 14 days
Summary of the method: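 Weeds and wheat were sprayed after emergence, at a height of 2 to 18 cm (1–4 leaves), and paddy barnyardgrass was flooded and treated at two leaves. Assessment took place 12–14 days later in the greenhouse on a 0-to-100 visual control scale. A dash means no result was obtained.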

corn = test: Test C pre-/postemergence herbicide test; type: in vivo, Zea mays; details: for Plant response rating, Corn: preemergence
Summary of the method: as §1

velvetleaf = test: Test C pre-/postemergence herbicide test; type: in vivo, Abutilon theophrasti; details: for Plant response rating, Velvetleaf: preemergence
Summary of the method: as §1

goosegrass = test: Test C pre-/postemergence herbicide test; type: in vivo, Eleusine indica; details: for Plant response rating, Goosegrass: preemergence
Summary of the method: as §1

johnsongrass = test: Test C pre-/postemergence herbicide test; type: in vivo, Sorghum halepense; details: for Plant response rating, Johnsongrass: preemergence
Summary of the method: as §1

Surinam grass = test: Test C pre-/postemergence herbicide test; type: in vivo, Urochloa decumbens; details: for Plant response rating, Surinam Grass: preemergence
Summary of the method: as §1

bermudagrass = test: Test C pre-/postemergence herbicide test; type: in vivo, Cynodon dactylon; details: for Plant response rating, Bermudagrass: preemergence; for Bermudagrass plant response rating: Preemergence, 500 g ai/ha
Summary of the method: as §1

[1] = 62 g ai/ha, scale 0 to 100 (0 no effect, 100 complete control)
[2] = 125 g ai/ha, scale 0 to 100 (0 no effect, 100 complete control)
[3] = 250 g ai/ha, scale of 0 to 100, 0 is no effect, 100 is complete control
[4] = scale 0 to 100 (0 no effect, 100 complete control)
[5] = 125 g ai/ha, scale 0 (no effect) to 100 (complete control), visual, 12 to 14 days
[6] = Preemergence, 500 g ai/ha, scale 0 to 100, 0 no effect, 100 complete control
[7] = 250 g ai/ha, scale 0 to 100 (0 no effect, 100 complete control), visual, 12 to 14 days
[8] = 62 g ai/ha, scale 0 to 100, 0 no effect, 100 complete control
[9] = scale 0 to 100, 0 no effect, 100 complete control
[10] = 500 g ai/ha, scale 0 to 100 (0 no effect, 100 complete control), visual, 12 to 14 days

Row | SMILES | Ducksalad plant response rating (ducksalad; [1]) | Ducksalad plant response rating (ducksalad; [2]) | Ducksalad plant response rating (ducksalad; [3]) | Plant response rating, Ducksalad (ducksalad; [4]) | Plant response rating, Ragweed (common ragweed; 62 g ai/ha, scale 0 to 100) | Plant response rating, Morningglory (morningglory; 62 g ai/ha, scale 0 to 100) | Barnyardgrass plant response rating (barnyardgrass; [1]) | Barnyardgrass plant response rating (barnyardgrass; [3]) | Plant response rating, Barnyardgrass (barnyardgrass; [4]) | Plant response rating, Corn (corn; 62 g ai/ha, scale 0 to 100) | Plant response rating, Corn (corn; [5]) | Plant response rating, Velvetleaf (velvetleaf; 62 g ai/ha, scale 0 to 100) | Plant response rating, Goosegrass (goosegrass; 62 g ai/ha, scale 0 to 100) | Plant response rating, Goosegrass (goosegrass; [5]) | Plant response rating, Johnsongrass (johnsongrass; 62 g ai/ha, scale 0 to 100) | Plant response rating, Johnsongrass (johnsongrass; [5]) | Plant response rating, Surinam Grass (Surinam grass; 62 g ai/ha, scale 0 to 100) | Plant response rating, Bermudagrass (bermudagrass; [8]) | Plant response rating, Bermudagrass (bermudagrass; [5]) | Bermudagrass plant response rating (bermudagrass; [9]) | also measured
1 | CCc1nn(C(C)(C)C)cc1C(=O)Nc1cccc(C(C)=NO)c1 [Compound 188] | 20 | 65 | 75 | 85 | 0 | 0 | 35 | 75 | 85 | 0 | 0 | 0 | 15 | 70 | 0 | 20 | 20 | 75 | 100 | 100 | Plant response rating, Ragweed (common ragweed; [5]): 65; Ragweed plant response rating (common ragweed; [6]): 100; Morningglory plant response rating (morningglory; [6]): 75; Barnyardgrass plant response rating (barnyardgrass; 125 g ai/ha, scale of 0 to 100, 0 is no effect, 100 is complete control): 55; Plant response rating, Corn (corn; [7]): 0; Corn plant response rating (corn; [6]): 5; Plant response rating, Velvetleaf (velvetleaf; [5]): 0; Velvetleaf plant response rating (velvetleaf; [6]): 75; Goosegrass plant response rating (goosegrass; [6]): 90; Johnsongrass plant response rating (johnsongrass; [6]): 75; Plant response rating, Surinam Grass (Surinam grass; [5]): 30; Surinam Grass plant response rating (Surinam grass; [6]): 80; Plant response rating, Bermudagrass (bermudagrass; [7]): 100
2 | CCn1nc(C(C)(C)C)cc1C(=O)Nc1cc(C(=O)N2CCCC2)ccc1F [Compound 242] | 65 | 95 | 95 | 95 | 95 | 0 | 15 | 90 | 95 | 0 | 0 | 100 | 100 | 100 | 65 | 95 | 85 | 95 | 100 | 100 | Plant response rating, Ragweed (common ragweed; 250 g ai/ha, scale 0-100): 100; Plant response rating, Ragweed (common ragweed; [10]): 100; Plant response rating, Morningglory (morningglory; [5]): 0; Plant response rating, Morningglory (morningglory; 250 g ai/ha, scale 0-100): 0; Plant response rating, Morningglory (morningglory; [10]): 15; Barnyardgrass plant response rating (barnyardgrass; [2]): 75; Plant response rating, Corn (corn; 250 g ai/ha, scale 0-100): 20; Plant response rating, Corn (corn; [10]): 25; Plant response rating, Velvetleaf (velvetleaf; 250 g ai/ha, scale 0-100): 100; Plant response rating, Velvetleaf (velvetleaf; [10]): 100; Plant response rating, Goosegrass (goosegrass; 250 g ai/ha, scale 0-100): 100; Plant response rating, Goosegrass (goosegrass; [10]): 100; Plant response rating, Johnsongrass (johnsongrass; 250 g ai/ha, scale 0-100): 100; Plant response rating, Johnsongrass (johnsongrass; [10]): 100; Plant response rating, Surinam Grass (Surinam grass; 250 g ai/ha, scale 0-100): 95; Plant response rating, Surinam Grass (Surinam grass; [10]): 100; Plant response rating, Bermudagrass (bermudagrass; 250 g ai/ha, scale 0-100): 100
